In the OligoGym collection:
Oligonucleotides are written 5' to 3', each unit as a sugar letter and its base; * is a phosphorothioate linkage, no mark a phosphodiester; rarer units and linkages stand in square brackets, end groups in braces. Plain capitals give the bases only. d = 2'-deoxy (DNA); r = 2'-OH (RNA)

Each substance was assayed against UBE2S (assay: reporter assay of Huesken 2005). Settings: siRNA.
Further: test concentration or dose not given here.

| Substance | normalised inhibition (eCFP-eYFP dual reporter) [%] |
| --- | --- |
| sense rGrUrArUrGrCrArGrCrUrCrGrGrGrCrCrCrGrUdTdT / antisense rArCrGrGrGrCrCrCrGrArGrCrUrGrCrArUrArCdTdC | 47 |
| sense rUrGrGrCrGrArGrArUrCrUrGrCrGrUrCrArArCdTdT / antisense rGrUrUrGrArCrGrCrArGrArUrCrUrCrGrCrCrAdTdT | 85.6 |
| sense rArCrArCrGrUrArCrUrGrCrUrGrArCrCrArUrCdTdT / antisense rGrArUrGrGrUrCrArGrCrArGrUrArCrGrUrGrUdCdG | 59.3 |
| sense rArArGrArUrCrUrUrCrCrArCrCrCrGrArArCrGdTdT / antisense rCrGrUrUrCrGrGrGrUrGrGrArArGrArUrCrUrUdGdG | 60.4 |
| sense rArCrGrGrCrUrGrArGrCrUrGrGrGrCrArUrCrCdTdT / antisense rGrGrArUrGrCrCrCrArGrCrUrCrArGrCrCrGrUdCdC | 52.3 |
| sense rArArGrGrUrCrUrUrUrCrCrCrArArCrGrArGrGdTdT / antisense rCrCrUrCrGrUrUrGrGrGrArArArGrArCrCrUrUdGdA | 53 |
| sense rGrGrArGrArArCrUrArCrGrArGrGrArGrUrArUdTdT / antisense rArUrArCrUrCrCrUrCrGrUrArGrUrUrCrUrCrCdAdA | 56.3 |
| sense rArCrGrArGrGrArGrGrCrGrGrGrCrCrGrCrCrUdTdT / antisense rArGrGrCrGrGrCrCrCrGrCrCrUrCrCrUrCrGrUdTdG | 44.3 |
| sense rArUrGrGrCrArUrCrArArGrGrUrCrUrUrUrCrCdTdT / antisense rGrGrArArArGrArCrCrUrUrGrArUrGrCrCrArUdCdG | 56.5 |

These substances were tested against UBE2B (assay: reporter assay of Huesken 2005). Settings: siRNA.

| Substance | normalised inhibition (eCFP-eYFP dual reporter) [%] |
| --- | --- |
| sense rGrUrArCrUrUrUrUrArArArCrUrArGrUrArArUdTdT / antisense rArUrUrArCrUrArGrUrUrUrArArArArGrUrArCdCdA | 86.2 |
| sense rCrGrGrCrCrArUrUrGrUrUrGrArArCrArArArGdTdT / antisense rCrUrUrUrGrUrUrCrArArCrArArUrGrGrCrCrGdAdA | 76.5 |
| sense rGrUrGrGrArArUrGrCrArGrUrUrArUrArUrUrUdTdT / antisense rArArArUrArUrArArCrUrGrCrArUrUrCrCrArCdTdG | 84.6 |
| sense rUrUrCrArUrCrCrArArArUrGrUrGrUrArUrGrCdTdT / antisense rGrCrArUrArCrArCrArUrUrUrGrGrArUrGrArAdAdC | 46 |
| sense rUrCrCrUrUrCrArGrArArUrCrGrArUrGrGrArGdTdT / antisense rCrUrCrCrArUrCrGrArUrUrCrUrGrArArGrGrAdTdA | 50 |
| sense rGrArArUrArUrGrArGrArArArArGrArGrUrUrUdTdT / antisense rArArArCrUrCrUrUrUrUrCrUrCrArUrArUrUrCdTdC | 78.7 |
| sense rCrCrArArArArUrGrUrUrUrCrArUrCrCrArArAdTdT / antisense rUrUrUrGrGrArUrGrArArArCrArUrUrUrUrGrGdAdT | 84.6 |
| sense rArUrGrGrUrArGrCrArUrArUrGrUrUrUrArGrAdTdT / antisense rUrCrUrArArArCrArUrArUrGrCrUrArCrCrArUdCdA | 69.4 |
| sense rCrUrUrCrArGrArArUrCrGrArUrGrGrArGrUrCdTdT / antisense rGrArCrUrCrCrArUrCrGrArUrUrCrUrGrArArGdGdA | 72.2 |
| sense rUrCrArGrUrCrUrCrUrGrCrUrGrGrArUrGrArAdTdT / antisense rUrUrCrArUrCrCrArGrCrArGrArGrArCrUrGrAdAdT | 62.4 |
| sense rUrUrUrUrCrUrGrArArGrArArUrArUrCrCrArAdTdT / antisense rUrUrGrGrArUrArUrUrCrUrUrCrArGrArArArAdTdT | 85.3 |
| sense rArGrArArArArGrArGrUrUrUrCrGrGrCrCrArUdTdT / antisense rArUrGrGrCrCrGrArArArCrUrCrUrUrUrUrCrUdCdA | 77.8 |
| sense rArGrGrGrArCrArCrCrUrUrUrUrGrArArGrArUdTdT / antisense rArUrCrUrUrCrArArArArGrGrUrGrUrCrCrCrUdTdC | 78.1 |
| sense rCrArGrGrCrArGrCrArCrArGrCrUrUrUrArUrCdTdT / antisense rGrArUrArArArGrCrUrGrUrGrCrUrGrCrCrUrGdGdC | 75.1 |
| sense rUrUrUrCrArArGrCrGrGrUrUrArCrArArGrArGdTdT / antisense rCrUrCrUrUrGrUrArArCrCrGrCrUrUrGrArArAdTdC | 45.5 |
| sense rUrGrCrArGrUrUrArUrArUrUrUrGrGrArCrCrAdTdT / antisense rUrGrGrUrCrCrArArArUrArUrArArCrUrGrCrAdTdT | 81.7 |
| sense rCrCrArCrCrArArCrUrGrUrUrArGrGrUrUrUrUdTdT / antisense rArArArArCrCrUrArArCrArGrUrUrGrGrUrGrGdTdT | 69.7 |
| sense rGrCrUrUrUrArUrCrArGrGrArArArArCrArArAdTdT / antisense rUrUrUrGrUrUrUrUrCrCrUrGrArUrArArArGrCdTdG | 80.4 |
| sense rArUrUrUrCrArArGrCrGrGrUrUrArCrArArGrAdTdT / antisense rUrCrUrUrGrUrArArCrCrGrCrUrUrGrArArArUdCdC | 78.2 |
| sense rCrArGrGrArArArArCrArArArCrGrArGrArArUdTdT / antisense rArUrUrCrUrCrGrUrUrUrGrUrUrUrUrCrCrUrGdAdT | 84 |
| sense rArGrUrCrCrArArCrArUrArUrGrArUrGrUrArUdTdT / antisense rArUrArCrArUrCrArUrArUrGrUrUrGrGrArCrUdCdC | 83.6 |
| sense rArUrCrCrArArArUrGrUrGrUrArUrGrCrUrGrAdTdT / antisense rUrCrArGrCrArUrArCrArCrArUrUrUrGrGrArUdGdA | 73 |
| sense rUrUrArArArCrUrArGrUrArArUrArGrArArUrUdTdT / antisense rArArUrUrCrUrArUrUrArCrUrArGrUrUrUrArAdAdA | 46.7 |
| sense rUrGrGrArUrGrArArCrCrGrArArUrCrCrUrArAdTdT / antisense rUrUrArGrGrArUrUrCrGrGrUrUrCrArUrCrCrAdGdC | 74.3 |
| sense rArCrGrArGrArArUrArUrGrArGrArArArArGrAdTdT / antisense rUrCrUrUrUrUrCrUrCrArUrArUrUrCrUrCrGrUdTdT | 84.2 |
| sense rGrCrGrCrArCrCrArUrCrUrGrArArArArCrArAdTdT / antisense rUrUrGrUrUrUrUrCrArGrArUrGrGrUrGrCrGrCdCdA | 72.8 |
| sense rArGrCrCrArGrGrCrArGrCrArCrArGrCrUrUrUdTdT / antisense rArArArGrCrUrGrUrGrCrUrGrCrCrUrGrGrCrUdAdT | 71.4 |
| sense rArUrUrUrUrCrUrGrArArGrArArUrArUrCrCrAdTdT / antisense rUrGrGrArUrArUrUrCrUrUrCrArGrArArArArUdTdC | 63.7 |
